Assay results reported in patent US8652533B2 (priority 2004, dated 2014).

Tests used:
SARS (Toronto-2 Strain) = assay: microbe, parasite or virus in culture; format: cell-based, SARS coronavirus (SARSCoV); settings: for ACTIVITY: conc. 1 μM; for cytoprotective effect in the assay (in words): tested concentration (1 μM)
SARSCoV, strain Urbani = format: cell-based, SARS coronavirus (SARSCoV)

Molecule | ACTIVITY (SARS (Toronto-2 Strain)) | cytoprotective effect in the assay (in words) (SARS (Toronto-2 Strain)) | inhibition at 1 µM (SARS (Toronto-2 Strain); Severe acute respiratory syndrome coronavirus, Vero 76, 72 h, read-out: % CPE (INHIBITION)) | direct virucidal effect (in words) (SARSCoV, strain Urbani)
Oc1cc(O)c2c(c1)O[C@H](c1ccc(O)c(O)c1)[C@@H](O)C2 [(+)-Catechin] | Inactive | not |  | 
Oc1cc(O)c2c(c1)O[C@@H](c1ccc(O)c(O)c1)[C@@H](O)C2 [(+)-Epicatechin] | Inactive |  |  | 
Oc1cc(O)c2c(c1)O[C@H](c1cc(O)c(O)c(O)c1)[C@@H](O)C2 [(+)-Gallocatechin] | Inactive | not |  | 
O=C(O[C@@H]1Cc2c(O)cc(O)cc2O[C@H]1c1ccc(O)c(O)c1)c1cc(O)c(O)c(O)c1 [(−)-Catechin Gallate] | Active |  |  | 
O=C(O[C@@H]1Cc2c(O)cc(O)cc2O[C@@H]1c1ccc(O)c(O)c1)c1cc(O)c(O)c(O)c1 [(−)-Epicatechin Gallate] | Active | had cytoprotective effect |  | 
Oc1cc(O)c2c(c1)O[C@H](c1ccc(O)c(O)c1)[C@H](O)C2 [(−)-Epicatechin] | Inactive | not |  | 
Oc1cc(O)c2c(c1)O[C@H](c1cc(O)c(O)c(O)c1)[C@H](O)C2 [(−)-Epigallocatechin] | Inactive | not |  | 
Oc1cc(O)c2c(c1)O[C@@H](c1cc(O)c(O)c(O)c1)[C@H](O)C2 [(−)-Gallocatechin] | Inactive |  |  | 
O=C(O[C@@H]1Cc2c(O)cc(O)cc2O[C@@H]1c1cc(O)c(=O)c2c(O)c(O)cc([C@H]3Oc4cc(O)cc(O)c4C[C@H]3OC(=O)c3cc(O)c(O)c(O)c3)c2c1)c1cc(O)c(O)c(O)c1 [Theaflavindigallate] | Active |  | 100% | 
O=c1c(O)cc([C@H]2Oc3cc(O)cc(O)c3C[C@H]2O)cc2c([C@H]3Oc4cc(O)cc(O)c4C[C@H]3O)cc(O)c(O)c12 [free Theaflavin] | Active |  |  | 
(−)-Catechin | Inactive |  |  | 
(−)-Epigallocatechin Gallate | Active | had cytoprotective effect |  | 
(−)-Gallocatechin Gallate | Active | had cytoprotective effect |  | 
Theaflavindigallate-A | Inactive |  |  | 
Theaflavindigallate-B | Inactive |  |  | 
catechin |  |  |  | very inhibitory to the virus
